The results in this text go back to PubChem BioAssay AID1996.

In brackets after ≈: the same amount, converted by molar mass. A value given as a limit tells only on which side of the number the result lay.

For the data set the following is noted: buffer; pH 7.4; 200.0 µM.
For `CC(C)(C)c1ccc(S(=O)(=O)NCC2CCCO2)cc1` (configuration not stated), the kinetic solubility (commonly the concentration staying in solution when a stock, usually in DMSO, is diluted into the medium) was 34.9 µg/mL (≈ 117 µM). For `Br.CC(C)(C)c1ccc(C2=CSC3=NCCN23)cc1` the value was 49.4 µg/mL. For `O=S(=O)(c1cc(F)ccc1F)N1CCN(c2ccccn2)CC1` the value was 18.9 µg/mL (≈ 55.7 µM).

Regarding `Cc1ccc(C(=O)NCC(=O)OC(C)C(=O)Nc2ccccc2[N+](=O)[O-])s1` (configuration not stated), the kinetic solubility was > 58.7 µg/mL.

For `CC(Sc1nncn1C)C(=O)Nc1ccc(N2CCCCC2)cc1` (configuration not stated), the solubility (kinetic) was > 51.8 µg/mL.

`CCn1cc(C2=NC(CCSC)CO2)c2ccccc21` (configuration not stated) had a kinetic solubility of 34 µg/mL (≈ 118 µM). For `CCOc1cc(OCC)cc(C(=O)NCCCN2CCOCC2)c1` the value was 48.4 µg/mL (≈ 144 µM). For `CC(=O)NCCc1nc2ccccc2n1Cc1cc(C)ccc1C` the value was > 48.2 µg/mL; for `O=C(NCCc1ccc(Cl)cc1)C1(c2ccccc2)CC1`, 35.4 µg/mL (≈ 118 µM).

`CCc1nc2ccccc2c(C(=O)NCc2ccc(OC)cc2)c1C`: the solubility (kinetic) is 47.9 µg/mL (≈ 143 µM).

`Nc1ccc(Cl)c(S(=O)(=O)Nc2ccc(Cl)cc2)c1` gave a solubility (kinetic) of 43.4 µg/mL (≈ 137 µM). Consider `COc1ccc(NC(=O)/C=C/C(=O)O)c([N+](=O)[O-])c1`, for which the kinetic solubility is > 39.9 µg/mL. In the case of `Cc1ccccc1CNc1ncnc2cc(Cl)ccc12`, the solubility (kinetic) turned out to be 0.5 µg/mL (≈ 1.76 µM).

For the compound `Cc1ccc(NC(=O)c2ccc(=O)[nH]c2)cc1S(=O)(=O)N1CCCCCC1`, the kinetic solubility is > 58.4 µg/mL.

As to `O=C(CN1C(=O)NC2(CCCC2)C1=O)OCCOc1ccccc1`, the kinetic solubility was > 49.9 µg/mL.

In turn, `COc1ccc2c(c1)CC/C(=C\Nc1ccc3c(c1)OCO3)C2=O` showed a kinetic solubility of 11.2 µg/mL (≈ 34.6 µM). For `C=CCN1C(=O)C(CC(=O)O)SC1=Nc1cccc([N+](=O)[O-])c1` (configuration not stated) the value was > 50.3 µg/mL; for `COC(=O)C1Cc2ccccc2CN1S(=O)(=O)c1ccc(F)cc1` (configuration not stated), 35.4 µg/mL (≈ 101 µM); for `O=C(OCC(=O)c1cccs1)c1ccc([N+](=O)[O-])o1`, 16.4 µg/mL (≈ 58.3 µM). Turning to `Cc1ccc(S(=O)(=O)N2CC(C(=O)O)Oc3ccccc32)cc1` (configuration not stated), the kinetic solubility is > 50 µg/mL. For `Cc1cccc(N2CCN(C(=O)N3CCCCC3)CC2)c1C` the value was 26.3 µg/mL (≈ 87.2 µM); for `O=C(OCN1C(=O)c2ccccc2C1=O)c1ccc(Cl)nc1`, 14.3 µg/mL (≈ 45.2 µM); for `COc1cccc(CNC(=O)c2cc(C)nc3ccccc23)c1`, 41.1 µg/mL (≈ 134 µM). Regarding `CC(Nc1nc(N2CCOCC2)nc2ccccc12)c1ccccc1` (configuration not stated), the solubility (kinetic) stood at 6.8 µg/mL (≈ 20.3 µM). Regarding `COc1ccccc1C(=O)C1CCCN(C(=O)c2ccco2)C1` (configuration not stated), the solubility (kinetic) was > 47 µg/mL. `CC1CCCCC1NCC(=O)Nc1ccccc1C(=O)Nc1ccccc1` (configuration not stated) registered a kinetic solubility of 4 µg/mL (≈ 10.9 µM). In the case of `Cc1cc(C(=O)OCC(=O)N2CCOCC2)ccc1[N+](=O)[O-]`, the solubility (kinetic) was > 46.2 µg/mL. In turn, `CC(C)(C)n1cnc2cc(NC(=O)c3ccco3)ccc21` returned a solubility (kinetic) of 41.1 µg/mL (≈ 145 µM). As to `CC1(C)C(=O)OC(/C=C/c2cccc([N+](=O)[O-])c2)C(C)(C)C1=O` (configuration not stated), the solubility (kinetic) stood at 2.7 µg/mL (≈ 8.51 µM). For `O=C(CCc1ccccc1)NC1CCS(=O)(=O)C1` (configuration not stated), the solubility (kinetic) was > 40.1 µg/mL.

Consider `Cc1cc([N+](=O)[O-])nn1CC(=O)NC(C)c1ccccc1` (configuration not stated), for which the solubility (kinetic) was > 43.2 µg/mL. The value for `O=C(/C=C/c1cccs1)N1CCN(c2ccccc2)CC1` was 1.6 µg/mL (≈ 5.36 µM). Consider `NC(=Nc1ccccc1)c1ccccc1`, for which the kinetic solubility is > 29.4 µg/mL.

`COc1ccc(CSC2=NCCN2)cc1Br`: the kinetic solubility came to 30.9 µg/mL (≈ 103 µM). The value for `CC(=O)c1cccn1S(=O)(=O)c1ccccc1` was 36.9 µg/mL (≈ 148 µM); that for `O=C(NCc1ccco1)C1CC(c2ccc(Cl)cc2)=NO1` (configuration not stated) was 2.9 µg/mL (≈ 9.52 µM). For `CC(C)(C)NC(=O)N1CCN(c2nc3ccc(Cl)cc3s2)CC1` the value was 1.7 µg/mL (≈ 4.82 µM); for `Cc1cc(C)c2oc(C(=O)N3CCN(C)CC3)cc(=O)c2c1`, 27.2 µg/mL (≈ 90.6 µM). As to `Cc1ccc(/C=N/n2c(C)nc3ccccc3c2=O)o1`, the kinetic solubility was > 40.1 µg/mL. Regarding `O=C(Nc1ccc2ccccc2c1)c1cccc([N+](=O)[O-])c1`, the kinetic solubility was < 0.3 µg/mL.

With `Cc1cc(C)cc(NC(=O)C2CC3CCC2C3)c1` (configuration not stated), the kinetic solubility was found to be 6.8 µg/mL (≈ 27.9 µM). The compound `O=C(NCc1ccccc1F)c1ccncc1` displayed a kinetic solubility of 29.5 µg/mL (≈ 128 µM). Turning to `Cc1ccccc1NC(=O)c1ccc2c(c1)CCN2S(C)(=O)=O`, the kinetic solubility is 6.3 µg/mL (≈ 19.1 µM).

For `CCCCNC(=O)C(=O)NCCCn1ccnc1`, the solubility (kinetic) is > 37.8 µg/mL. The value for `Cc1ccc(SCC(=O)OCC(=O)Nc2ccc3[nH]c(=O)[nH]c3c2)cc1C` was 5.8 µg/mL (≈ 15 µM); that for `C=Cn1ccnc1CC(O)c1ccc(OC)cc1` (configuration not stated) was 33.9 µg/mL (≈ 139 µM). For `O=[N+]([O-])c1ccc2nc(-c3cccnc3)[nH]c2c1` the value was > 36 µg/mL; for `O=C(CCCN1C(=O)c2ccccc2C1=O)NCc1ccc(F)cc1`, 47.8 µg/mL (≈ 140 µM). As to `CSc1ccc(C2CC(=O)Nc3c2c(=O)n(C)c(=O)n3C)cc1` (configuration not stated), the solubility (kinetic) was > 49.7 µg/mL. For `CC(=O)/C(=C(/O)c1ccccc1)c1nc2ccccc2[nH]1` the value was 1.4 µg/mL (≈ 5.03 µM); for `CCCCCCCCNC(CO)(CO)CO`, 29.5 µg/mL (≈ 126 µM); for `O=C(NCC1CC1)Nc1ccccc1`, > 28.5 µg/mL.
